Several values for one entry are separate records, joined by “and”; a condition that tells them apart may be missing. Equal values may be shown once. Entries after “also recorded” stand apart in the source; their conditions may differ.
Legend:
[1] = target: T1, human TGFbeta receptor I and II (Homo sapiens, UniProt P36897); experiment: In vitro TGFβ receptor kinase assay (pull down); assay type: biochemical; conditions: 20 μM
T1 construct: expressed in transfected cells; host or cells: A549 cells, anti-Flag immunoprecipitate on Protein G-agarose
T1 sequence (P36897 34-503): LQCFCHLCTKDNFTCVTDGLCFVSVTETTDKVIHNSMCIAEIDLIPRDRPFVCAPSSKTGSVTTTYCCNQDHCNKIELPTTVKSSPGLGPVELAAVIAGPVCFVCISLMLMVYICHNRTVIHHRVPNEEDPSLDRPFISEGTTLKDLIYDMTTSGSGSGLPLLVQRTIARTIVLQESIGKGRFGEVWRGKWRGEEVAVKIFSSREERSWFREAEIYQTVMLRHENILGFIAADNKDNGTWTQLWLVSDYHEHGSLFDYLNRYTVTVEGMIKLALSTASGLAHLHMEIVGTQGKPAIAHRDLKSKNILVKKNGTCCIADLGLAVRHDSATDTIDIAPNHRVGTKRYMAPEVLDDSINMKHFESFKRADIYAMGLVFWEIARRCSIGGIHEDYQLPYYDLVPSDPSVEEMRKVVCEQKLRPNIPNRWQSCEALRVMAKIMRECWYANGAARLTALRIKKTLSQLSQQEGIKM
Protocol: In vitro TGFβ receptor kinase assay. A549 cells were transiently co-transfected with Flag-tagged human TGFbeta receptor I and II. After 24 hours the cells were lysed in 1% NP40 lysis buffer (1% NP40, 20 mM Tris pH7.6, 200 mM NaCl plus protease inhibitor cocktail, 10 mM NaF, 1 mM Na3VO4), and the type I and II receptors were immunoprecipitated using anti-Flag antibody and Protein G-agarose (Roche). The beads were washed three times with kinase buffer (0.01% Triton X-100, 25 mM HEPES, pH 7.4, 2 mM MnCl2, 10 mM MgCl2, 20 μM DTT, 0.1 mM NaF, 0.1 mM Na3 VO4). The kinase reactions were initiated by addition of 0.1 mM ATP in the presence or absence of inhibitors or lysate from A549 cells pre-treated with corilagin. The kinase reactions were terminated by addition of an equal volume of 2×sample buffer. The TGFbeta receptor kinase activity was analyzed by SDS-PAGE and immunoblotting with anti-phosphotyrosine monoclonal antibody 4G10 (EMD Millipore) and anti-Flag antibody.

Solubility (statement) = assay type: physicochemical
[2] = tested on: C57BL/6 mice, intratracheal bleomycin; experiment: Bleomycin fibrosis model; assay type: in vivo
Protocol: For histological assessment of lung collagen, frozen sections of the left lung were stained using Masson's Trichrome stain kit (American MasterTech, Lodi, Calif., USA).
Bleomycin fibrosis model. Eight-week old C57BL/6 mice were intratracheally instilled with saline or 1.9 units/kg of bleomycin (Sigma-Aldrich). Mice were implanted with osmotic pumps loaded with ellagic acid salt (24 mg/kg/day, Day 10-Day 17), fed with red raspberry diet (Day 0-Day 21), or gavaged with corilagin (100 mg/kg, Day 10-Day 21). Controls were treated with control pump, control diet, or vehicle in the same formulation. The lungs were lavaged and followed by OCT embedding for imaging or snap freezing in liquid nitrogen for protein extraction or hydroxyproline assay.
Collagen content Lung or aorta collagen content was evaluated using hydroxyproline assay. Briefly, whole left lung tissue or aorta was hydrolyzed in 1 ml 12N HCl at 110° C. for 24 h and the hydroxyproline was detected by incubating with Chloramine T and p-dimethylaminobenzaldehyde and the absorbance was measured at 550 nm. Each sample was run in triplicate. Collagen content in lung or aorta tissues was expressed as micrograms of collagen per lung or aorta and was converted from micrograms of hydroxyproline.

[3] = tested on: TGFβ1-induced epithelial-mesenchymal transition (EMT) in A549 adenocarcinoma cells; experiment: TGFβ1-induced EMT in A549 cells (image-based screen, immunoblot); assay type: cell-based; conditions: catechins 1 and 10 μM, 48 h
Protocol: High throughput screen and high content imaging analysis. A549 cell-based screening of inhibitors to TGFβ1-induced EMT from a bioactive small molecule library was performed in 384-well plate format and the images were captured and analyzed using GE IN Cell 2000 as described previously^16.
(§1) Immunoblot. Pulverized tissue and cells were lysed in RIP A buffer (150 mM NaCl, 50 mM Tris, pH 8.0, 1% Triton X-100, 0.5% sodium deoxycholate, 0.1% SDS, supplemented with protease and phosphatase inhibitors) and analyzed by immunoblotting. Densitometry was quantified using NIH Imaged software.

human LOXL2 = target: T2, human LOXL2 (Homo sapiens, UniProt Q9Y4K0); experiment: Collagen crosslinking induced by recombinant LOXL2 in lung fibroblasts (Sircol assay); assay type: cell-based; conditions: primary human lung fibroblasts, 7 days
T2 sequence (Q9Y4K0 26-774): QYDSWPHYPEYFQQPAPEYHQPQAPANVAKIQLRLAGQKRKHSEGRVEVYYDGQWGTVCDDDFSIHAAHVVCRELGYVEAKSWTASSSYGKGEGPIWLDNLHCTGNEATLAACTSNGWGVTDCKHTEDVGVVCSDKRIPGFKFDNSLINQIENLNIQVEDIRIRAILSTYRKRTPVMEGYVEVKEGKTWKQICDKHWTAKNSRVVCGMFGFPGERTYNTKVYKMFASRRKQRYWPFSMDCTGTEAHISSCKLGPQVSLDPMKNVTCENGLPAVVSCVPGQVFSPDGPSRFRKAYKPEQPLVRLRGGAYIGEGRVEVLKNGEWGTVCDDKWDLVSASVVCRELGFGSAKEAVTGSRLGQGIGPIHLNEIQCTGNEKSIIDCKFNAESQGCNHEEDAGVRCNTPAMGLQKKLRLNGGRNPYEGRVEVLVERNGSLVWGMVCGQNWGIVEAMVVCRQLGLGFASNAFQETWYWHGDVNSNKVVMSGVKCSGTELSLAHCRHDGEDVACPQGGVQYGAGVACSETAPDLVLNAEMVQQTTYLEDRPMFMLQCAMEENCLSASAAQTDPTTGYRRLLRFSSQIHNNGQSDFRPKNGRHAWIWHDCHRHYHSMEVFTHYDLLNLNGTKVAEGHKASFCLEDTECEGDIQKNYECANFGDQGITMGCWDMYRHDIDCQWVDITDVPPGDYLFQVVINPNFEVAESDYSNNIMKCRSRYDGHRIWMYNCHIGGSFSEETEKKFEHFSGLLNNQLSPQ
Protocol: Preparation of insoluble cross-linked collagen. Fibroblasts were cultured on 10 cm dish until confluent. The medium was then changed to Dulbecco's modified Eagle's medium (DMEM) containing 5% FBS, 100 μM L-ascorbic acid with 500 kDa Dextran Sulfate at 100 μg/ml, and 50 ng/ml recombinant human LOXL2 (rhLOXL2) for 7 days^21,22. The cell layer was extracted with 0.5 M acetic acid and 0.1 mg/ml pepsin overnight at 4° C. The leftover insoluble fraction was further extracted and the insoluble cross-linked collagen measured using Sircol Insoluble Collagen Assay kit according to manufacture's instruction.

[4] = target: T3, ALK5/TGFβRI catalytic domain (Homo sapiens, UniProt P36897); experiment: ALK5/TGFβRI catalytic domain kinase assay; assay type: biochemical
T3 construct: ALK5/TGFβRI kinase assays using purified catalytic domain was performed
T3 sequence (P36897 205-495 limits assumed): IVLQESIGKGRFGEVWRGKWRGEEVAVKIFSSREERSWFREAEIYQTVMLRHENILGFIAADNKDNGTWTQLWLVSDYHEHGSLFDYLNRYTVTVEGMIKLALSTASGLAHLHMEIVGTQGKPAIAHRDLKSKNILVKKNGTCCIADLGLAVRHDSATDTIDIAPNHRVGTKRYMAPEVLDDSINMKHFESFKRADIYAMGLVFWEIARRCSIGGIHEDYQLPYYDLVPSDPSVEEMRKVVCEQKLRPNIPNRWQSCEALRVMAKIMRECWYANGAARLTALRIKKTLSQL
Protocol: ALK5/TGFβRI catalytic domain kinase assay. ALK5/TGFβRI kinase assays using purified catalytic domain was performed. The reaction buffer contains 20 mM Hepes (pH 7.5), 10 mM MgCl2, 1 mM EGTA, 0.02% Brij35, 0.02 mg/ml BSA, 0.1 mM Na3VO4, 2 mM DTT, and 200 μM NAC. In brief, ten 3-fold series dilutions of 3Abd and 2Abd starting at 100 μM was delivered into kinase reaction mixture with kinase, cofactors, and substrate. After 20 min incubation at room temperature, ^33P-ATP was delivered into the mixture to initiate the reaction. Kinase activity was detected 2 h later by P81 filter-binding method.

[5] = tested on: TGFβ1 signaling (p-smad3) in A549 cells; experiment: TGFβ1-induced p-smad generation in cells (immunoblot); assay type: cell-based; conditions: 0.5-10 μM
Protocol: as §1

For `Oc1cccc(Cl)c1O` [3 Cc, 3-chlorocatechol], which “activity in a pull down kinase assay from cells overexpressing TGFβRI” value [1] is on record?
The value was “not”.

For `O=c1oc2c(O)c(O)cc3c(=O)oc4c(O)c(O)cc1c4c23` [EA, Ellagic acid], which solubility (Solubility (statement)) is on record?
The solubility was “poorly soluble”.

And the “survival after intratracheal bleomycin” value ([2]; EA chow day 21, EA pump day 17)?
Its value is “improve survival”.

And the “collagen accumulation after intratracheal bleomycin” value ([2]; ad libitum chow of 2% w/w raspberry extract rich in EA and EA precursors)?
The value was “substantially block”.

Which “inhibition of snail 1 and fibronectin in TGFβ1 stimulated A549 cells” value [3] does the source give for `Oc1cc(O)c2c(c1)O[C@H](c1ccc(O)c(O)c1)[C@H](O)C2` [EC, epicatechin] here?
Its value is “no activity”.

For `Oc1cc(O)c2c(c1)O[C@H](c1cc(O)c(O)c(O)c1)[C@H](O)C2` [EGC, epigallocatechin], which “inhibition of snail 1 and fibronectin in TGFβ1 stimulated A549 cells” value [3] is on record?
The value was “potent inhibitor”.

For `CC(=O)N[C@@H](CS)C(=O)O` [NAC, N-acetylcysteine], which “effect on collagen crosslinking induced by recombinant LOXL2” value (human LOXL2) is on record?
The value was “no effect”.

For `NC(=O)c1ccc(-c2nc(-c3ccc4c(c3)OCO4)c(-c3ccccn3)[nH]2)cc1` [SB431542], which “effect on collagen crosslinking induced by recombinant LOXL2” value (human LOXL2) is on record?
The value was “no effect”.

What does the source list for `Nc1c(O)cccc1O` [Target 2Abd, 2-aminobenzene-1,3-diol]?
direct inhibition of TGFβRI kinase activity [4]: not; inhibition of TGFβ1-induced p-smad3 and snail 1 without pre-incubation and regardless of LOXL2 expression [5]: not

Which “direct inhibition of TGFβRI kinase activity” value [4] does the source give for `Nc1cccc(O)c1O` [Target 3Abd, 3-aminobenzene-1,2-diol] here?
The value was “directly inhibit; also recorded: directly blocked”.

And the IC50 ([4]; ten doses starting from 100 μM, 33P-ATP)?
The IC50 was ~3 µM and 3 µM.

And the “inhibition of TGFβ1-induced p-smad3 and snail 1 without pre-incubation and regardless of LOXL2 expression” value [5]?
The value was “potent inhibitor”.

What about the “activity in a pull down kinase assay from cells overexpressing TGFβRI” value [1] of the same compound?
Its value is “blocked activity”.

Which “inhibition of TGFβ1-induced p-smad3 and snail 1 without pre-incubation and regardless of LOXL2 expression” value [5] does the source give for `Nc1ccc(O)c(O)c1` [Target 4Abd, 4-aminobenzene-1,2-diol] here?
The value was “not”.
